Measurements reported in article PMC12216609, “Inhibitors of eIF1A-ribosome interaction unveil uORF-dependent regulation of translation initiation and antitumor and antiviral effects” (The EMBO Journal, 2025).
Where “and” joins values, the source holds several entries; their conditions need not be identical. Equal entries are not always repeated. Where two headings read alike, the source gives them in different places.

Columns and labels:
eIF1A = biological target: T1, eIF1A (Homo sapiens, UniProt P47813); assay type: binding; settings: for fluorescence ratio, eIF1A: background-corrected, relative to DMSO or lowest 1Ai concentration, replicate columns
T1 construct: His-bdSUMO (cleaved yes); made in house; host or cells: E. coli BL-21

[1] = tested on: IRF7 5'UTR firefly luciferase reporter in HEK293T cells; settings: for Reference vs IRF7 (Final data, Fig. 1E): 1/Result, relative to DMSO; for LONG (summary - All), normalized to DMSO / SHORT (summary - All), normalized to DMSO: individual replicates, outliers excluded, DMSO = 1; for SHORT (summary - All), normalized to DMSO: Short reporter; for average ( long vs short ratio): summary - All;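 on all read-outs here: luciferase signal corrected by a co-transfected GFP reporter for transfection efficiency, read after overnight compound exposure, with Long and Short reporters differing in 5'UTR length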
[2] = tested on: CUG/GUG vs AUG start codon luciferase reporters in HEK293T cells; assay: Near-cognate AUG starting codon fidelity reporter assay (GUG, CUG vs AUG); assay type: cell-based; settings: for average CUG and GUG / average CUG and GUG relative to DMSO / CUG Average / GUG Average: NUG experiment; for CUG Average: CUG vs AUG reporter; for GUG Average: GUG vs AUG reporter; for NUG (Final data, Fig. 1E): average CUG and GUG relative to DMSO, 20 µM overnight; for GUG vs AUG data (%): individual repeat; for GUG vs AUG (%) Average: summary average of repeats, DMSO control average […]
RPS10 = biological target: T2, RPS10 (Homo sapiens, UniProt P46783); assay type: binding
T2 construct: made in house; host or cells: E. coli BL-21

[3] = tested on: cap-proximal AUG GFP reporter in HEK293T cells; assay type: cell-based; settings: GFP WB densitometry; 20 µM overnight; dmso 0.965946;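 further: ratio of upstream to downstream AUG initiation products on GFP Western blot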
[4] = eIF1A, from the titration data, read-out: IC50 (eIF1A titration block)
[5] = summary table, fluorescence binding assay, read-out: IC50 concentration (µM), WT eIF1A
[6] = raw data calculation of one experiment, GFP normalized, AUG set to 100, compound marked (20)

T1 sequence (P47813 whole entry): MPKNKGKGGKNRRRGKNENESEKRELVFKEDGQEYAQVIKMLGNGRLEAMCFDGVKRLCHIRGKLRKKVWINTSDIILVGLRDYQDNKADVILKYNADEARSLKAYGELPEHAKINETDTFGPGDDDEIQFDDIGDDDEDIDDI

COc1ccc(C=C2CSc3ccc(Cl)cc3C2=O)cc1O [1Ai-5175]
fluorescence ratio, eIF1A (eIF1A; 1Ai conc. 0.25 uM): 0.9293 and 0.8251 | fluorescence ratio, eIF1A (eIF1A; 1Ai conc. 0.5 uM): 0.9438 and 0.8466 | fluorescence ratio, eIF1A (eIF1A; 1Ai conc. 1 uM): 0.9705 and 0.8212 | fluorescence ratio, eIF1A (eIF1A; 1Ai conc. 2 uM): 0.5643 and 0.7297 | fluorescence ratio, eIF1A (eIF1A; 1Ai conc. 4 uM): 0.4919 and 0.7019 | fluorescence ratio, eIF1A (eIF1A; 1Ai conc. 8 uM): 0.4802 and 0.6176 | fluorescence ratio, eIF1A (eIF1A; 1Ai conc. 16 uM): 0.3895 and 0.4949 | fluorescence ratio, eIF1A (eIF1A; 1Ai conc. 32 uM): 0.3105 and 0.4413 | fluorescence ratio, eIF1A (eIF1A; 1Ai conc. 64 uM): 0.2231 and 0.3132 | fluorescence ratio, eIF1A (eIF1A; 1Ai conc. 256 uM): 0.1792 and 0.2884 | IC50 (eIF1A; [4]): 6.02 µM | IC50 (eIF1A; [5]): 6 µM | Reference vs IRF7 (Final data, Fig. 1E) ([1]; 20 µM): 2.369 | LONG (summary - All), normalized to DMSO ([1]; Long reporter, 5 µM): 0.41 and 0.69 and 0.67 | SHORT (summary - All), normalized to DMSO ([1]; 5 µM): 1.04 and 2.35 and 0.82 | Long: Normalized to average DMSO ([1]; data section, Long reporter, GFP-corrected, 5 µM, per experiment): 0.4067 and 0.6939 and 0.6743 | average ( long vs short ratio) ([1]; 5 µM): 0.422 | CUG vs AUG (%) ([2]; CUG start codon reporter relative to AUG reporter (AUG = 100), compound at 5uM (summary head), single-experiment calculation): 10.1681% and 8.512% | GUG vs AUG (%) ([2]; GUG start codon reporter relative to AUG reporter (AUG = 100), compound at 5uM (summary head), single-experiment calculation): 2.289% and 2.982% | average CUG and GUG [2]: 5.826 | average CUG and GUG relative to DMSO [2]: 1.2918 | CUG Average [2]: 9.011 | GUG Average [2]: 2.642 | NUG (Final data, Fig. 1E) [2]: 1.292 | GUG vs AUG data (%) ([2]; compound at 5uM): 2.76% and 3.14% and 2.85% and 1.82% | GUG vs AUG (%) Average ([2]; compound at 5uM): 2.64% | calculation: CUG (AUG = 100) [2, 6]: 4.394 | calculation: GUG (AUG = 100) [2, 6]: 1.456 | RPS10 fluorescence ratio to control (RPS10; 1Ai conc. 0.25 uM): 0.6015 | RPS10 fluorescence ratio to control (RPS10; 1Ai conc. 0.5 uM): 0.7077 | RPS10 fluorescence ratio to control (RPS10; 1Ai conc. 1 uM): 1.288 | RPS10 fluorescence ratio to control (RPS10; 1Ai conc. 2 uM): 1.156 | RPS10 fluorescence ratio to control (RPS10; 1Ai conc. 4 uM): 1.025 | RPS10 fluorescence ratio to control (RPS10; 1Ai conc. 8 uM): 0.4718 | RPS10 fluorescence ratio to control (RPS10; 1Ai conc. 16 uM): 0.1497 | RPS10 fluorescence ratio to control (RPS10; 1Ai conc. 32 uM): 0.1533 | RPS10 fluorescence ratio to control (RPS10; 1Ai conc. 64 uM): 0.2655 | RPS10 fluorescence ratio to control (RPS10; 1Ai conc. 256 uM): 0.2335 | IC50 (RPS10; read-out: IC50 (line under RPS10 binding data)): 6.7 µM | IC50 (RPS10; read-out: RPS10 IC50): 6.7 µM | IC50 (RPS10; summary table, fluorescence binding assay, read-out: IC50 concentration (µM), RPS10): 6.7 µM | US/DS ratio, average [3]: 1.243

CN1CCN(S(=O)(=O)c2ccc(N3Cc4cc5c(cc4C4(CCCC4)C3)OCCO5)nc2)CC1 [1Ai-3564]
fluorescence ratio, eIF1A (eIF1A; 1Ai conc. 0.25 uM): 1.044 and 1 | fluorescence ratio, eIF1A (eIF1A; 1Ai conc. 0.5 uM): 1.089 and 1.095 | fluorescence ratio, eIF1A (eIF1A; 1Ai conc. 1 uM): 1.239 and 0.9891 | fluorescence ratio, eIF1A (eIF1A; 1Ai conc. 2 uM): 1.143 and 0.9513 | fluorescence ratio, eIF1A (eIF1A; 1Ai conc. 4 uM): 1.209 and 0.9045 | fluorescence ratio, eIF1A (eIF1A; 1Ai conc. 8 uM): 1.156 and 0.8599 | fluorescence ratio, eIF1A (eIF1A; 1Ai conc. 16 uM): 1.357 and 1.021 | fluorescence ratio, eIF1A (eIF1A; 1Ai conc. 32 uM): 1.557 and 1.107 | fluorescence ratio, eIF1A (eIF1A; 1Ai conc. 64 uM): 1.6 and 1.164 | fluorescence ratio, eIF1A (eIF1A; 1Ai conc. 256 uM): 1.73 and 1.413 | IC50 (eIF1A; [4]): 35.2 µM | IC50 (eIF1A; [5]): 35.3 µM | Reference vs IRF7 (Final data, Fig. 1E) ([1]; 20 µM): 1.762 | LONG (summary - All), normalized to DMSO ([1]; Long reporter, 20 µM): 0.26 and 0.60 and 0.49 and 0.43 and 0.25 | SHORT (summary - All), normalized to DMSO ([1]; 20 µM): 0.54 and 0.80 and 0.85 and 0.72 and 0.67 | Long 5'UTR reporter luciferase activity, normalized to DMSO (=1), single replicates ([1]; compound at 20 µM, left data block (Long), source data of Fig 1C): 0.261 and 0.6001 and 0.4877 and 0.4313 and 0.2492 | average ( long vs short ratio) ([1]; 20 µM): 0.568 | average CUG and GUG [2]: 6.96 | average CUG and GUG relative to DMSO [2]: 1.543 | CUG Average [2]: 10.8773 | GUG Average [2]: 3.042 | NUG (Final data, Fig. 1E) [2]: 1.543 | GUG vs AUG data (%) ([2]; compound at 20uM): 2.43% and 3.12% and 4.52% and 2.10% | GUG vs AUG (%) Average ([2]; compound at 20uM): 3.04% | RPS10 fluorescence ratio to control (RPS10; 1Ai conc. 0.25 uM): 1 | RPS10 fluorescence ratio to control (RPS10; 1Ai conc. 0.5 uM): 0.8515 | RPS10 fluorescence ratio to control (RPS10; 1Ai conc. 1 uM): 0.9657 | RPS10 fluorescence ratio to control (RPS10; 1Ai conc. 2 uM): 0.9853 | RPS10 fluorescence ratio to control (RPS10; 1Ai conc. 4 uM): 0.8932 | RPS10 fluorescence ratio to control (RPS10; 1Ai conc. 8 uM): 0.9434 | RPS10 fluorescence ratio to control (RPS10; 1Ai conc. 16 uM): 0.942 | RPS10 fluorescence ratio to control (RPS10; 1Ai conc. 32 uM): 1 | RPS10 fluorescence ratio to control (RPS10; 1Ai conc. 64 uM): 1.142 | RPS10 fluorescence ratio to control (RPS10; 1Ai conc. 256 uM): 1.206 | RPS10 IC50 (RPS10; fluorescence binding): No binding | IC50 concentration (µM), RPS10 (RPS10; summary table, fluorescence binding assay): No binding | US/DS ratio, average [3]: 0.4649
